From ChEMBL document CHEMBL1148338, “Structure-activity relationships at monoamine transporters for a series of N-substituted 3alpha-(bis[4-fluorophenyl]methoxy)tropanes: comparative molecular field analysis, synthesis, and pharmacological evaluation” (J Med Chem, 2004)

Columns and labels:
[1] = target: Sodium-dependent dopamine transporter (Rattus norvegicus, UniProt P23977); assay: biochemical; type: tissue-based, Brain
Description: Binding affinity at dopamine transporter in rat brain by [3H]WIN-35428 displacement.

[2] = target: T1, Muscarinic acetylcholine receptor M1 (Rattus norvegicus, UniProt P08482); assay: Binding affinity at muscarinic M1 receptor in rat brain by [3H]pirenzepine displacement.; type: tissue-based
T1 sequence (P08482 whole entry): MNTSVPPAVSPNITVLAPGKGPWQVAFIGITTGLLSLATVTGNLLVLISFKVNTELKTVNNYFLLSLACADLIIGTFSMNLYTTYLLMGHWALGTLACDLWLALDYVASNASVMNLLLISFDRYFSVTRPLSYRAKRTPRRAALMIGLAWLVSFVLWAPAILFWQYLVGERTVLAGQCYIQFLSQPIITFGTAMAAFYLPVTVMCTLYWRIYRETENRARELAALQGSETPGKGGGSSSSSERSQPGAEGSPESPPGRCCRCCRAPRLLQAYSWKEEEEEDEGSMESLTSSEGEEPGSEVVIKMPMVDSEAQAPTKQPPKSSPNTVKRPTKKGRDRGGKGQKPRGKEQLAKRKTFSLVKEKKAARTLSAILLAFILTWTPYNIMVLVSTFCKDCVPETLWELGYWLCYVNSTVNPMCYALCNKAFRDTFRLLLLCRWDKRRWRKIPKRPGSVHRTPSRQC

[3] = target: Sodium-dependent serotonin transporter (Rattus norvegicus, UniProt P31652); assay: Binding affinity at serotonin transporter in rat brain by [3H]-citalopram displacement.; type: tissue-based
Chain of Sodium-dependent serotonin transporter (P31652 whole entry): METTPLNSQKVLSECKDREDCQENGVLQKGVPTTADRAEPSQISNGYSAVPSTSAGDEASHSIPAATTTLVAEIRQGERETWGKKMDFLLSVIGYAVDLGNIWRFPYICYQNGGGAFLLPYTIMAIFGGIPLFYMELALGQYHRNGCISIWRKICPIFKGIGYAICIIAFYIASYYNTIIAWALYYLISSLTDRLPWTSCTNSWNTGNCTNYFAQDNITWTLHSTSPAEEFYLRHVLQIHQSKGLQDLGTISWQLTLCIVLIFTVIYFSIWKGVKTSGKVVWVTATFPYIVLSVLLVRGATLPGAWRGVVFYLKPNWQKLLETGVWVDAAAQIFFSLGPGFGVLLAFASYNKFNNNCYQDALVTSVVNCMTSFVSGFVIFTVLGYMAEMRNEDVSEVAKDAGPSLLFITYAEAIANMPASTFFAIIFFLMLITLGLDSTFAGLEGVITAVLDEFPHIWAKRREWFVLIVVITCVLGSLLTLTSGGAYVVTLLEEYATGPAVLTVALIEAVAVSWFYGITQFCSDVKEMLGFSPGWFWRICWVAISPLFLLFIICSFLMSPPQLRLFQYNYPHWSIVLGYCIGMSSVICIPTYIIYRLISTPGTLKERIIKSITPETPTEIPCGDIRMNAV

[4] = species on record: Rattus norvegicus; assay: Compound was tested for inhibition of [3H]dopamine uptake (DAUI) in rat synaptosomes; type: functional; conditions: Brain
[5] = target: Norepinephrine transporter (Rattus norvegicus, UniProt Q9WTR4); assay: Displacement of [3H]nisoxetine from norepinephrine transporter (NET) of rat brain; type: tissue-based
Chain of Norepinephrine transporter (Q9WTR4 whole entry): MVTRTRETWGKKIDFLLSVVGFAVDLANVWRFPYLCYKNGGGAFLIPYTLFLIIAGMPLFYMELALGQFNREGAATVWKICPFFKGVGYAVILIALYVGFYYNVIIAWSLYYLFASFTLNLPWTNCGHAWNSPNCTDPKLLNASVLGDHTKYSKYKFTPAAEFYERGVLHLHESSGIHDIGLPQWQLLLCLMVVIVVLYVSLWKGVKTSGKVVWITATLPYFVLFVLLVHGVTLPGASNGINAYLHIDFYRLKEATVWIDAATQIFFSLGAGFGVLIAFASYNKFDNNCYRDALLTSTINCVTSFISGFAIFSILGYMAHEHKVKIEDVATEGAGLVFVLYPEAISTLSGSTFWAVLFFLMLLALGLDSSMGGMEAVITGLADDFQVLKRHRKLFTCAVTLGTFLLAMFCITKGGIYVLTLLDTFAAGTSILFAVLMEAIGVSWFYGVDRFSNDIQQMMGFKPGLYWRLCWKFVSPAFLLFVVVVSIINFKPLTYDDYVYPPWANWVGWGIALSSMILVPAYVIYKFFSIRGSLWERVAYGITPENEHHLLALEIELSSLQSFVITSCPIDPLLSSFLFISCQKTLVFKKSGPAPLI

[6] = Partition coefficient (logD); conditions: octanol/water

Chain of Sodium-dependent dopamine transporter (P23977 whole entry): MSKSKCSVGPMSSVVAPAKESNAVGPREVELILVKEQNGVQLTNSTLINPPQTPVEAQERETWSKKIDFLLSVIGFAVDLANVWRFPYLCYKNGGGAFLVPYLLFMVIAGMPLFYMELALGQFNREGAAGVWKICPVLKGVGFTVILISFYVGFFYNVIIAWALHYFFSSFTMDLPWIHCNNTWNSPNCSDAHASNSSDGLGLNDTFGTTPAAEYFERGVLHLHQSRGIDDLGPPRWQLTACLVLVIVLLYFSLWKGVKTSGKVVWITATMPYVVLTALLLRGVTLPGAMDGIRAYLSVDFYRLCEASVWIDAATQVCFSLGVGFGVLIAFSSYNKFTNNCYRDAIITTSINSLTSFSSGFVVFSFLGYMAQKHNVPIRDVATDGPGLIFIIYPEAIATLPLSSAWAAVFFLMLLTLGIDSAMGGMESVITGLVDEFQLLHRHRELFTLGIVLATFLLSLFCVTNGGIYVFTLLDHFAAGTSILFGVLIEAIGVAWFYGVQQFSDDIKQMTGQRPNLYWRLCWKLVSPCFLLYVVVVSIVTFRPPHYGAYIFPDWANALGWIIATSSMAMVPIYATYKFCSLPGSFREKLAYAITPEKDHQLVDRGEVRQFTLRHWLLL

SMILES | Ki [1] [nM] | Ki [2] [nM] | Ki [3] [nM] | IC50 [4] [nM] | Ki [5] [nM] | logD [6]
Fc1ccc(C(OC2CC3CCC(C2)N3CCCOc2ccccc2)c2ccc(F)cc2)cc1 (centres undefined) | 703 | 9280 | 7730 | 227 | 12100 | 
O=C(NCCN1C2CCC1CC(OC(c1ccc(F)cc1)c1ccc(F)cc1)C2)c1cccnc1 (centres undefined) |  |  |  | 14.2 |  | 
O=C(NCCN1C2CCC1CC(OC(c1ccc(F)cc1)c1ccc(F)cc1)C2)c1ccccc1 (centres undefined) | 13.1 | 556 | 597 | 6.5 | 637 | 
Fc1ccc(C(OC2CC3CCC(C2)N3CCOCCN2CCOCC2)c2ccc(F)cc2)cc1 (centres undefined) | 1620 | 15800 | 23000 | 659 | 28100 | 2.05
O=C(CCN1[C@@H]2CC[C@H]1C[C@@H](OC(c1ccc(F)cc1)c1ccc(F)cc1)C2)Nc1ccccc1 | 27.6 | 3280 | 1490 | 5 | 1420 | 
NCCN1[C@@H]2CC[C@H]1C[C@@H](OC(c1ccc(F)cc1)c1ccc(F)cc1)C2 |  |  | 4600 | 26 | 1420 | 
Fc1ccc(C(OC2CC3CCC(C2)N3CCNCc2ccccc2)c2ccc(F)cc2)cc1 (centres undefined) |  |  |  | 8.1 |  | 
Fc1ccc(C(OC2CC3CCC(C2)N3CCOCc2ccccc2)c2ccc(F)cc2)cc1 (centres undefined) | 48.5 | 390 | 1300 | 22.3 | 3060 | 
OCCOCCN1C2CCC1CC(OC(c1ccc(F)cc1)c1ccc(F)cc1)C2 (centres undefined) | 42.6 | 336 | 14300 | 48.9 | 3650 | 2.01
Fc1ccc(C(OC2CC3CCC(C2)N3CCOCc2cccs2)c2ccc(F)cc2)cc1 (centres undefined) | 65.9 | 613 | 2090 | 18.7 | 3450 | 4.19
COC(=O)[C@@H]1C2CC[C@@H](C[C@@H]1OC(=O)c1ccccc1)N2C (single isomer, unassigned) [COCAINE] |  |  |  |  |  | 1.51
